Reference: the supplement of paper PMC10307832

compound: CC1(C)CNc2cc(NC(=O)c3cccnc3NCc3ccncc3)ccc21 [Motesanib] + CS(=O)(=O)N1CCN(Cc2cc3nc(-c4cccc5[nH]ncc45)nc(N4CCOCC4)c3s2)CC1 [Pictilisib] (partner 1 µM); test: relative viability (nuclei count vs DMSO), 5 days (fraction); higher = more cells survive; details: first compound 0.01 µM
Method in brief: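 A single step with final 0.05% Triton X-100, 1% formaldehyde and 1 ug/ml Hoechst fixed the cells and stained nuclei 5 days after treatment. Lung cancer cell lines in 1536-well plates had been treated by pin tool the day after seeding with one drug alone or a fixed anchor-drug dose plus five library-drug doses (not always all listed) in √10 steps, and nuclei were counted on 4× images. Relative viability is the ratio of nuclei in treated wells to nuclei in vehicle wells, taken as the median of duplicate plates.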

Cell Line | relative viability
NCI-H2023 | 0.234
HCC-15 | 0.786
NCI-H1793 | 0.364
PC-14 | 0.729
EKVX | 0.483
LC-2-ad | 0.449
NCI-H1563 | 0.65
NCI-H1944 | 0.322
NCI-H1975 | 0.312
RERF-LC-KJ | 0.507
ABC-1 | 0.81
NCI-H358 | 0.303
NCI-H650 | 0.832
PC-3 [JPC-3] | 0.774

same assay, conditions: first compound 0.03162 µM

Cell Line | relative viability
NCI-H23 | 0.41
NCI-H1299 | 0.828
NCI-H647 | 0.394
NCI-H1651 | 0.538
EPLC-272H | 0.176
NCI-H2228 | 0.356
NCI-H1792 | 0.231
NCI-H1355 | 0.475
NCI-H3122 | 0.534
NCI-H1437 | 0.441
NCI-H1755 | 0.423
NCI-H2023 | 0.226
HCC-15 | 0.729
NCI-H1793 | 0.282
PC-14 | 0.695
EKVX | 0.445
LC-2-ad | 0.593
NCI-H1563 | 0.645
NCI-H1944 | 0.342
NCI-H1975 | 0.282
RERF-LC-KJ | 0.63
ABC-1 | 0.962
NCI-H358 | 0.336
NCI-H650 | 0.757
PC-3 [JPC-3] | 0.858

same assay, conditions: first compound 0.1 µM

Cell Line | relative viability
NCI-H1299 | 0.825
NCI-H647 | 0.408
CAL-12T | 0.358
NCI-H1651 | 0.516
EPLC-272H | 0.267
NCI-H2228 | 0.387
NCI-H1792 | 0.294
NCI-H1355 | 0.406
NCI-H3122 | 0.618
NCI-H1437 | 0.467
NCI-H1755 | 0.442
NCI-H2023 | 0.276
HCC-15 | 0.653
NCI-H1793 | 0.301
PC-14 | 0.84
EKVX | 0.462
LC-2-ad | 0.479
NCI-H1563 | 0.68
NCI-H1944 | 0.399
NCI-H1975 | 0.313
RERF-LC-KJ | 0.621
ABC-1 | 0.715
NCI-H358 | 0.351
NCI-H650 | 0.875
PC-3 [JPC-3] | 0.733

same assay, conditions: first compound 0.3162 µM

Cell Line | relative viability
NCI-H23 | 0.562
NCI-H1299 | 0.845
NCI-H647 | 0.333
CAL-12T | 0.403
NCI-H1651 | 0.562
EPLC-272H | 0.317
NCI-H2228 | 0.365
NCI-H1792 | 0.297
NCI-H1355 | 0.502
NCI-H3122 | 0.626
NCI-H1437 | 0.502
NCI-H1755 | 0.454
NCI-H2023 | 0.239
HCC-15 | 0.848
NCI-H1793 | 0.34
PC-14 | 0.72
EKVX | 0.472
LC-2-ad | 0.568
NCI-H1563 | 0.64
NCI-H1944 | 0.379
NCI-H1975 | 0.352
RERF-LC-KJ | 0.613
ABC-1 | 0.707
NCI-H358 | 0.435
NCI-H650 | 0.992
PC-3 [JPC-3] | 0.853

same assay, conditions: first compound 1 µM

Cell Line | relative viability
NCI-H23 | 0.53
NCI-H1299 | 0.845
NCI-H647 | 0.442
CAL-12T | 0.434
NCI-H1651 | 0.51
EPLC-272H | 0.309
NCI-H2228 | 0.535
NCI-H1792 | 0.309
NCI-H1355 | 0.485
NCI-H3122 | 0.667
NCI-H1437 | 0.406
NCI-H1755 | 0.402
NCI-H2023 | 0.238
HCC-15 | 0.747
NCI-H1793 | 0.469
PC-14 | 0.858
EKVX | 0.506
LC-2-ad | 0.421
NCI-H1563 | 0.678
NCI-H1944 | 0.364
NCI-H1975 | 0.31
RERF-LC-KJ | 0.61
ABC-1 | 0.76
NCI-H358 | 0.338
NCI-H650 | 0.854
PC-3 [JPC-3] | 0.706
